From ChEMBL document CHEMBL5042510, “Structure-Guided Discovery of Aminoquinazolines as Brain-Penetrant and Selective LRRK2 Inhibitors” (J Med Chem, 2022)

What was measured:
[1] = molecular target: Leucine-rich repeat serine/threonine-protein kinase 2 (Homo sapiens, UniProt Q5S007, G2019S); test: Inhibition of recombinant N-terminal GST-fused LRRK2 […] mutant (970 to 2527 residues) (unknown origin) preincubated with enzyme for 15 mins followed by fluorescein-labeled LRRKtide peptide substrate and ATP addition for 90 mins by TR-FRET assay
[2] = MRT in Wistar Han rat at 0.1 mg/kg, iv by LC-MS/MS analysis; assay type: ADME, organism-based; details: in vivo
[3] = Intrinsic clearance in rat hepatocytes at 0.3 uM incubated for 90 mins by LC/MS/MS analysis; assay type: ADME, cell-based, Hepatocyte; details: read-out: CLH
[4] = Intrinsic clearance in human hepatocytes at 0.3 uM incubated for 90 mins by LC/MS/MS analysis; assay type: ADME, cell-based, Hepatocyte; details: read-out: CLH
[5] = molecular target: Voltage-gated inwardly rectifying potassium channel KCNH2 (Homo sapiens, UniProt Q12809); test: Inhibition of human ERG by voltage clamp assay; assay type: toxicity
[6] = tested on: Leucine-rich repeat serine/threonine-protein kinase 2 (Homo sapiens), Q5S007 [G2019S]; test: Inhibition of LRRK2 […] mutant expressed in human SH-SY5Y cells assessed as unbound concentration required for inhibition of phosphorylation of LRRK2 at Ser935 residue incubated for 90 mins by MSD assay; assay type: cell-based
[7] = Total plasma clearance in Wistar Han rat at 0.1 mg/kg, iv by LC-MS/MS analysis; assay type: ADME, organism-based
[8] = Intrinsic clearance in Wistar Han rat at 0.1 mg/kg, iv by LC-MS/MS analysis; assay type: ADME, organism-based; details: in vivo
rat Mdr1a (P-gp) [9] = test: Efflux ratio of apparent permeability across basolateral to apical side over apical to basolateral side in rat Mdr1a-transfected pig LLC-PK1 cells at 0.1 to 1 uM measured after 3 hrs by LC/MS/MS analysis; assay type: ADME, cell-based, Sus scrofa; details: dose 0.1-1 µM
rat Mdr1a (P-gp) [10] = test: Apparent permeability from apical to basolateral side in rat Mdr1a-transfected pig LLC-PK1 cells at 0.1 to 1 uM measured after 3 hrs by LC/MS/MS analysis; assay type: ADME, cell-based, Sus scrofa; details: dose 0.1-1 µM
[11] = Unbound brain-to-plasma concentration ratio in non-human primates administered orally and measured after 120 mins by LC/MS/MS analysis; assay type: ADME; details: po, read-out: K(p,uu,brain)
[12] = Unbound brain-to-plasma concentration ratio in rat at 2.5 uM incubated for 4 hrs by equilibrium dialysis method; assay type: ADME, cell-free; details: brain and plasma (unbound), read-out: K(p,uu,brain)
human MDR1 (P-gp) = test: Efflux ratio of apparent permeability across basolateral to apical side over apical to basolateral side in human MDR1-transfected dog MDCKII-MDR1 cells at 0.1 to 1 uM measured after 3 hrs by LC/MS/MS analysis; assay type: ADME, cell-based, Canis lupus familiaris; details: MDCK-MDR1, dose 0.1-1 µM
[13] = Intrinsic clearance in dog hepatocytes at 0.3 uM incubated for 90 mins by LC/MS/MS analysis; assay type: ADME, cell-based, Canis lupus familiaris, Hepatocyte; details: read-out: CLH
[14] = Intrinsic clearance in Wistar Han rat at 2 mg/kg, iv by LC-MS/MS analysis; assay type: ADME, organism-based; details: in vivo
mouse Bcrp = test: Efflux ratio of apparent permeability across basolateral to apical over apical to basolateral side in mouse Bcrp-transfected dog MDCK-II cells at 0.1 to 1 uM measured after 3 hrs by LC/MS/MS analysis; assay type: ADME, cell-based, Canis lupus familiaris; details: dose 0.1-1 µM
[15] = Oral bioavailability in Wistar Han rat at 10 mg/kg by LC-MS/MS analysis; assay type: ADME, organism-based; details: in vivo
[16] = MRT in Wistar Han rat at 2 mg/kg, iv by LC-MS/MS analysis; assay type: ADME, organism-based; details: in vivo
[17] = Total plasma clearance in Wistar Han rat at 2 mg/kg, iv by LC-MS/MS analysis; assay type: ADME, organism-based

Sequence of Leucine-rich repeat serine/threonine-protein kinase 2 (Homo sapiens), Q5S007 [G2019S] (Q5S007 whole entry G2019S): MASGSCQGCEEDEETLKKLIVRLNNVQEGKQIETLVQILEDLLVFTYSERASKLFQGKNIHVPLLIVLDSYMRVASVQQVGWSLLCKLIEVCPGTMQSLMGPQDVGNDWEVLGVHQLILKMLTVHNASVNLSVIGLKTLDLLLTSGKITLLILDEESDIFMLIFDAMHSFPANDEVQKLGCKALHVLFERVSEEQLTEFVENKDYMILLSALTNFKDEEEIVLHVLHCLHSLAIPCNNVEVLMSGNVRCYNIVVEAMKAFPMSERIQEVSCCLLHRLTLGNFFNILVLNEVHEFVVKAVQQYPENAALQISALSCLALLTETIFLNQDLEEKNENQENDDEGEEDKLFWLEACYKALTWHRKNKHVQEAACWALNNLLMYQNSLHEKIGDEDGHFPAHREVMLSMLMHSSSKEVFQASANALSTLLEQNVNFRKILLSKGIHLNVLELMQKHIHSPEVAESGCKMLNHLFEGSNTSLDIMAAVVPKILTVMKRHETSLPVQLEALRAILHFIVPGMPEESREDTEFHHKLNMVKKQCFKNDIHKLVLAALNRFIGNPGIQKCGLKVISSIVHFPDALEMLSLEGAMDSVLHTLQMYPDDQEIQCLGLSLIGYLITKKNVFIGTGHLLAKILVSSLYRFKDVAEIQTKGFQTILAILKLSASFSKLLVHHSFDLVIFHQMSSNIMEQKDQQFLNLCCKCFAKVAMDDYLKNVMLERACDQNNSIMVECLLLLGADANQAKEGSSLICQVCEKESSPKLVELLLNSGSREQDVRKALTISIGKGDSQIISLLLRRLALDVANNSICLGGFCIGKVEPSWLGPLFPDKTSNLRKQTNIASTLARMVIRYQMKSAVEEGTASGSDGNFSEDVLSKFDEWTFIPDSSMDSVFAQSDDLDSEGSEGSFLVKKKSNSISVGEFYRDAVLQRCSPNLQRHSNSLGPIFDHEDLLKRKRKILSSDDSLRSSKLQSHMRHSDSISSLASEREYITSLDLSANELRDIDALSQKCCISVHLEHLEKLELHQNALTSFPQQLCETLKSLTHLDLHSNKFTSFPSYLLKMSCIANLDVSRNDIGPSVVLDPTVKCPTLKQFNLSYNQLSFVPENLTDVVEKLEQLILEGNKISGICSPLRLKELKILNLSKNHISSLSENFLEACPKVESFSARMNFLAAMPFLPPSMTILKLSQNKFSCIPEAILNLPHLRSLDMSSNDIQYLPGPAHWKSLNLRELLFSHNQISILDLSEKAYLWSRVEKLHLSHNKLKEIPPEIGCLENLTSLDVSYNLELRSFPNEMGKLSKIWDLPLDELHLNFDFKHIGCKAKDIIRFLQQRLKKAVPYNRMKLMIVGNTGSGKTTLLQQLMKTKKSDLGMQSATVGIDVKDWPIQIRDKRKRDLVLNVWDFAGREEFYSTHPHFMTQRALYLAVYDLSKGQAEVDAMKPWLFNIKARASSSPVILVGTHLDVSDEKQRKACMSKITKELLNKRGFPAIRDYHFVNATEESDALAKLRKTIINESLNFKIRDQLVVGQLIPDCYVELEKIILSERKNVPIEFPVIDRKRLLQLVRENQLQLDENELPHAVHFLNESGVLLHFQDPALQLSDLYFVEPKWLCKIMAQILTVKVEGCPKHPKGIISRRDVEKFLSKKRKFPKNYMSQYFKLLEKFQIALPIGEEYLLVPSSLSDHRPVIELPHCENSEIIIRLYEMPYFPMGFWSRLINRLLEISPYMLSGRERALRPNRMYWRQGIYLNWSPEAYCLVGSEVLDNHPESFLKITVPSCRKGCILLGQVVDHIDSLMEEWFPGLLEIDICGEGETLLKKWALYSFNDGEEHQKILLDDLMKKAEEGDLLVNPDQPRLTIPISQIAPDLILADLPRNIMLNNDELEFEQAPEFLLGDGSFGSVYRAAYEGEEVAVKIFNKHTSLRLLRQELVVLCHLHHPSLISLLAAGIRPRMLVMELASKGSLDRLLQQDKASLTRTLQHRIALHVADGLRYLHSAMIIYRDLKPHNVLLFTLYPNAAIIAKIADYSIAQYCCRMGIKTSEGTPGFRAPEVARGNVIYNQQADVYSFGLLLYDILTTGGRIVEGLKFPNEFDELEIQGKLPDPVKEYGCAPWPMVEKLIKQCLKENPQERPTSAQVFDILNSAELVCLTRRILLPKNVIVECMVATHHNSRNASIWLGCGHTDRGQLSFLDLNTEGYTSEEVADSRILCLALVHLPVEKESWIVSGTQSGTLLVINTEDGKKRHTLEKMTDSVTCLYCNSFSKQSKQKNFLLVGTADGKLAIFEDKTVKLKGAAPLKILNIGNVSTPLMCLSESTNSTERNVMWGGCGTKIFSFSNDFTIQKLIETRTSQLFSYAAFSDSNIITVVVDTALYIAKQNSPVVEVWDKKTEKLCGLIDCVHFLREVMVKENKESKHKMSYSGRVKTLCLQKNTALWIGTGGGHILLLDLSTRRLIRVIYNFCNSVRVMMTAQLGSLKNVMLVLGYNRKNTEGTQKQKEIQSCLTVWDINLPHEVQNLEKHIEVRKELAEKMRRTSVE
Sequence of Leucine-rich repeat serine/threonine-protein kinase 2 (Q5S007 whole entry G2019S, the tested form may be a part): as the sequence (Q5S007 whole entry G2019S) above
Sequence of Voltage-gated inwardly rectifying potassium channel KCNH2 (Q12809 whole entry): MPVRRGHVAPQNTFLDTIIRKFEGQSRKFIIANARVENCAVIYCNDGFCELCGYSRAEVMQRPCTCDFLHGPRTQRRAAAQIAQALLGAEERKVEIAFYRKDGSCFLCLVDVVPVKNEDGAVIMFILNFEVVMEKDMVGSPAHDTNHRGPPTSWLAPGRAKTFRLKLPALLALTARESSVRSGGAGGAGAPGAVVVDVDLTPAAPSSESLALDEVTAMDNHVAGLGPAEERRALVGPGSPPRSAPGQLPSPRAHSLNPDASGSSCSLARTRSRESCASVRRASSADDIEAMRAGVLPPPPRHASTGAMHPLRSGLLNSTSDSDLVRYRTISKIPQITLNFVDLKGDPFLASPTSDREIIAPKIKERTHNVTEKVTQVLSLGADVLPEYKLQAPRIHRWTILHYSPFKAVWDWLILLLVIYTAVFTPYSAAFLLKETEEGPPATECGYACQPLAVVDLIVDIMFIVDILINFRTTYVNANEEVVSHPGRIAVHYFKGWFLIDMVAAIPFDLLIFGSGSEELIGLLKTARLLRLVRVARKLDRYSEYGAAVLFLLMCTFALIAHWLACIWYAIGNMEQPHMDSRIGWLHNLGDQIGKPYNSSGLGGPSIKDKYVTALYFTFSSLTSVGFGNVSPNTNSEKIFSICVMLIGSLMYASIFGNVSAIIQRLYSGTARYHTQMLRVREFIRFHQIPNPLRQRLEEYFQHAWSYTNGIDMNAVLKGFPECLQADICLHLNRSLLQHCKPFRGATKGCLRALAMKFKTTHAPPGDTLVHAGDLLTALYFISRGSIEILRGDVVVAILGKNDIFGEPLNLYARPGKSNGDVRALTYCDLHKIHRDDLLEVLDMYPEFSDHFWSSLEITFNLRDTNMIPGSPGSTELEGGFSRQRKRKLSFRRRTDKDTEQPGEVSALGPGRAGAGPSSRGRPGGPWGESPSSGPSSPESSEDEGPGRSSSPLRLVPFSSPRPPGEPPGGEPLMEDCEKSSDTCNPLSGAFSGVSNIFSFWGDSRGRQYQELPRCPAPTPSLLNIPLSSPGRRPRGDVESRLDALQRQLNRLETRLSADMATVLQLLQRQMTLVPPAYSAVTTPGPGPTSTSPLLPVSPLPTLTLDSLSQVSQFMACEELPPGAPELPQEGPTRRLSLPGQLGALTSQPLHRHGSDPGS

| Compound | IC50 [1] [nM] | MRT [2] [h] | CLint scaled at 0.3 µM [3] [mL/min/kg] | CLint scaled at 0.3 µM [4] [mL/min/kg] | fIC50 [6] [nM] | clearance [7] [mL/min/kg] | CL [8] [mL/min/kg] | efflux ratio at 3 h, up to 1 µM (rat Mdr1a (P-gp) [9]) | Papp A→B at 3 h, up to 1 µM (rat Mdr1a (P-gp) [10]) [×10⁻⁶ cm/s] | IC50 [5] [µM] | further results |
| --- | --- | --- | --- | --- | --- | --- | --- | --- | --- | --- | --- |
| Clc1cc2cnc(Nc3cnn(C4CC4)c3Cl)nc2cc1N1CCN(C2COC2)CC1 | – | 1.1 | 168 | 63 | 71 | 42 | 1800 | 0.9 | 33 | 24 | – |
| CNc1nc(Nc2cn(C(C)(C)C#N)nc2C)ncc1C(F)(F)F [DNL-201] | – | – | – | – | – | – | – | – | – | – | Kp uu at 2 h [11]: 0.46; Kp uu at 4 h, 2.5 µM [12]: 0.6; efflux ratio at 3 h, up to 1 µM (human MDR1 (P-gp)): 0.8 |
| CCNc1nc(Nc2cc(F)c(C(=O)N3CCOCC3)cc2OC)ncc1C(F)(F)F | – | – | – | – | – | – | – | – | – | – | Kp uu at 2 h [11]: 0.6; Kp uu at 4 h, 2.5 µM [12]: 0.5; efflux ratio at 3 h, up to 1 µM (human MDR1 (P-gp)): 0.9 |
| Cc1c(Nc2ncc3ccc(C4CCN(C5COC5)CC4)cc3n2)cnn1C1CCOCC1 | 6800 | – | – | – | – | – | – | – | – | – | – |
| FC1CN(C2COC2)CCC1c1cc2nc(Nc3cnn(C4CC4(F)F)c3Cl)ncc2cc1Cl (stereo unspecified) | < 0.6 | 2.7 | 210 | 186 | 6.1 | 20 | 1545 | 1.2 | 31 | 18.3 | – |
| Cc1c(Nc2ncc3ccc(-c4ccn[nH]4)cc3n2)cnn1C1CCOCC1 | 1.7 | – | – | – | 114 | – | – | – | – | – | – |
| c1cc(C2CC2)c2nc(Nc3cnn(C4CCOCC4)c3)ncc2c1 | 15 | – | – | – | 90 | – | – | – | – | – | – |
| Cc1c(Nc2ncc3ccc(C4(C#N)CC4)cc3n2)cnn1C1CCOCC1 | 0.7 | – | – | – | 19 | – | – | 6.4 | 34 | – | – |
| FC1CN(C2COCC2F)CCC1c1cc2nc(Nc3cnn(C4CC4(F)F)c3Cl)ncc2cc1Cl (stereo unspecified) | < 0.6 | 4.8 | 956 | 720 | 1.9 | 12 | 2771 | 1.6 | 23 | 8.6 | – |
| Cc1c(Nc2ncc3ccc(C4(C#N)CC45CC5)cc3n2)cnn1C1CCOCC1 (stereo unspecified) | < 0.6 | – | – | – | 6.9 | – | – | 7.2 | 34 | – | – |

Continued, in another order:

| IC50 [1] [nM] | MRT [2] [h] | CLint scaled at 0.3 µM [3] [mL/min/kg] | CLint scaled at 0.3 µM [4] [mL/min/kg] | fIC50 [6] [nM] | clearance [7] [mL/min/kg] | CL [8] [mL/min/kg] | efflux ratio at 3 h, up to 1 µM (rat Mdr1a (P-gp) [9]) | Papp A→B at 3 h, up to 1 µM (rat Mdr1a (P-gp) [10]) [×10⁻⁶ cm/s] | Compound | IC50 [5] [µM] | further results |
| --- | --- | --- | --- | --- | --- | --- | --- | --- | --- | --- | --- |
| < 0.6 | 3.3 | 2640 | 471 | 2.5 | 22 | 2494 | – | – | FC1CN(C2CCOC2)CCC1c1cc2nc(Nc3cnn(C4CC4(F)F)c3Cl)ncc2cc1Cl (stereo unspecified) | 35 | – |
| < 0.6 | – | 329 | 175 | 4.3 | – | – | 1.3 | 32 | FC1CN(C2COC2)CCC1c1cc2nc(Nc3cnn(C4CC4)c3Cl)ncc2cc1Cl (stereo unspecified) | 14 | CLint scaled at 0.3 µM [13]: 1300 mL/min/kg; CL [14]: 1200 mL/min/kg; efflux ratio at 3 h, up to 1 µM (mouse Bcrp): 1.3; bioavailability [15]: 54%; MRT [16]: 3.8 h; Kp uu at 4 h, 2.5 µM [12]: 0.5; clearance [17]: 18 mL/min/kg |
| < 0.6 | 1.5 | 464 | 57 | 4.8 | 19 | 1025 | 0.5 | 26 | Clc1cc2cnc(Nc3cnn(C4CC4)c3Cl)nc2cc1C1CCN(C2COC2)CC1 | 4.6 | efflux ratio at 3 h, up to 1 µM (mouse Bcrp): 0.6 |
| < 0.6 | 1.8 | 336 | 212 | 7.4 | 18 | 755 | 1 | 33 | FC(F)Cn1ncc(Nc2ncc3cc(Cl)c(C4CCN(C5COC5)CC4F)cc3n2)c1Cl (stereo unspecified) | – | – |
| < 0.08 | – | 1960 | 405 | 1.7 | – | – | 0.9 | 31 | N#CC1(c2ccc3cnc(Nc4cnn(C5CCOCC5)c4Cl)nc3c2)CC12CC2 (stereo unspecified) | – | – |
